Converted amounts (≈) assume the structure as drawn.
Assays:
[1] = tested on: eye; test: ERG toxicity of retinoic acid implant sutured onto sclera; assay type: in vivo; details: 12 mg disc in silicone on sclera, 3 rabbits, ERG weekly for 5 weeks
Method: A device according to the present invention was prepared. This device was composed of a 3 mm, 12 mg disc of retinoic acid encased in silicone. It resembles FIG. 3 in appearance. The implant was prepared by preparing a thin film of silicone. A 2.5 mm hole was then cut through the film and the retinoic acid pellet fixed directly over the hole using silicone. A loop of Prolene suture was placed over the pellet and fixed onto the surface of the film so that a "gap" of over 1 mm was present between the pellet and the suture all the way around. The entire assembly was then coated again in silicone. These pellets were sutured onto the surface of the sclera in 3 rabbits and the ERGs taken every week for 5 weeks.

[2] = tested on: eye; test: Ocular safety of ciprofloxacin device (ERG, slit lamp, indirect biomicroscopy)
[3] = tested on: most pathogens; details: cited from earlier work
[4] = In vitro release of ciprofloxacin from device (HPLC); assay type: physicochemical
Method: Ciprofloxacin is normally supplied as the HCl salt. […] A 5% solution of PLA was used as a "glue" to fix a 7-0 nylon suture to the pellet.
Release from these devices was determined at 37° C. by immersion in 1 ml of phosphate buffer (pH 7.4) or a solution composed of 20% serum: 80% phosphate buffer. […] Samples were again assayed by HPLC.

SMILES | toxicity (ERG) [1] | slit lamp examination ([2]; 7 and 14 days) | indirect biomicroscopy ([2]; implanted eyes) | ERG waveforms or amplitudes ([2]; pre- vs post-implantation) | MIC90 [3] | persistence of drug particles in subconjunctival space (5 mg subconjunctival suspension injection) | linearity of release in the vitreous (explanted devices) | mean release rate in the vitreous (explanted devices) | mean device duration (from mean release rate) | linearity of release ([4]; 37° C., 6 days, phosphate buffer pH 7.4 or 20% serum) | effect of serum concentration on release ([4]; phosphate buffer pH 7.4 vs 20% serum) | linearity of release ([4]; separate study, twenty day period)
CC1=C(/C=C/C(C)=C/C=C/C(C)=C/C(=O)O)C(C)(C)CCC1 [retinoic acid] | no evidence of toxicity |  |  |  |  |  |  |  |  |  |  | 
O=C(O)c1cn(C2CC2)c2cc(N3CCNCC3)c(F)cc2c1=O [ciprofloxacin] |  | mild vitreous cell at 7 days that had resolved by 14 days | devices to be stable with no migration and no retinal detachment | no significant difference in the pre- and post-implantation waveforms or amplitudes | 1 µg/mL (≈ 3.02 µM) | 7 days | linear while in the vitreous | 2.5 µg/h | 4 weeks | linear over the duration of the study | relatively independent of serum concentration | linear over a twenty day period
